The CC50 is the concentration giving 50% cytotoxicity. Broadly, the EC50 is the midpoint of the concentration-response curve.

For 18 compounds, CC50 and EC50 results are on record in patent publication US11142527B2, “Dihydropyrimidine compounds and uses thereof in medicine” (SUNSHINE LAKE PHARMA CO., LTD., priority 2017, dated 2021).

The nature of data set [1]: Cytotoxicity test with CellTiter Glo. The class given is cell-based. To be noted: human, HepG2.2.15 cells, highest concentration 150 μM, read-out: CC50 values of the compounds of the invention. In a few lines: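 HepG2.2.15 cells (3000/well) exposed to serially diluted compound, highest final concentration 150 μM, for 4 days at 37 °C. Viability read by CellTiter Glo, cytotoxicity % taken relative to DMSO controls, and CC50 obtained by four-parameter nonlinear regression.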
On the technique in general: Cellular ATP, detected with luciferase, serves as a proxy for viable cell number.

Another data set has as its system HBV. Kind of data set: Test of anti HBV activity in vitro (viral DNA by qPCR). The class given is cell-based. The note with it: Hepatitis B virus; HepG2.2.15 cells, viral DNA in cell culture supernatant by qPCR; read-out: EC50 values of the compound of the invention on viral replication. In a few lines: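 HepG2.2.15 cells (integrated HBV genome) were grown to confluence, then treated with compound in 4-fold dilutions from 4 μM final (0.5% DMSO). Secreted viral DNA in supernatant was quantified by SYBR qPCR against an HBV plasmid standard curve; EC50 from four-parameter nonlinear regression of concentration versus copy number.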

On to `COC(=O)C1=C(CN2CCN3C(=O)N(c4ccc(-c5ccc(C(C)(C)C(=O)O)cc5)nc4)C[C@@H]3C2)NC(c2nccs2)=N[C@H]1c1ccc(F)cc1Cl` [Example 125, 2-(4-(5-((S)-7-(((R)-6-(2-chloro-4-fluorophenyl)-5-(methoxycarbonyl)-2-(thiazol-2-yl)-3,6-dihydropyrimidin-4-yl)methyl)-3-oxohexahydroimidazo[1,5-a]pyrazin-2(3H)-yl)pyridin-2-yl)phenyl)-2-methylpropanoic acid], for which the CC50 at 4 days in data set [1] was more than 150000 nM. In the data set on HBV, the concentration for a half-maximal effect (EC50) was determined as 21 nM.

In the case of `COC(=O)C1=C(CN2CCN3C(=O)N(c4cc(F)cc(-c5ccc(C(=O)O)c(F)c5)c4)C[C@@H]3C2)NC(c2nccs2)=N[C@H]1c1ccc(F)cc1Cl` [Example 119], the CC50 at 4 days in data set [1] is more than 150000 nM. Moreover, the concentration giving a half-maximal response (EC50) in the data set on HBV was 15.6 nM.

For `COC(=O)C1=C(CN2CCN3C(=O)N(c4ccc(Oc5ccc(C(=O)NC(C)CO)cc5)cc4)C[C@@H]3C2)NC(c2nccs2)=N[C@H]1c1ccc(F)cc1Cl` (stereo partly drawn) [Example 72, (4R)-methyl 4-(2-chloro-4-fluorophenyl)-6-(((8aS)-2-(4-(4-((1-hydroxyprop-2-yl)carbamoyl)phenoxy)phenyl)-3-oxohexahydroimidazo[1,5-a]pyrazin-7(1H)-yl)methyl)-2-(thiazol-2-yl)-1,4-dihydropyrimidine-5-carboxylate], the CC50 at 4 days in data set [1] is more than 150000 nM. For the same compound, the EC50 with HBV amounted to 21.2 nM.

As to `COC(=O)C1=C(CN2CCN3C(=O)N(c4ccc(Oc5ccc(C(=O)N6CCO[C@H](CCC(=O)O)C6)cc5)cc4)C[C@@H]3C2)NC(c2nccs2)=N[C@H]1c1ccc(F)cc1Cl` [Example 74, 3-((R)-4-(4-(4-(((S)-7-((R)-6-(2-chloro-4-fluorophenyl)-5-(methoxycarbonyl)-2-(thiazol-2-yl)-3,6-dihydropyrimidin-4-yl)methyl)-3-oxohexahydroimidazo[1,5-a]pyrazin-2(3H)-yl)phenoxy)benzoyl)morpholin-2-yl)propanoic acid], the CC50 at 4 days in data set [1] was more than 150000 nM. In addition, in the data set on HBV, the EC50 was 30.7 nM.

Take `COC(=O)C1=C(CN2CCN3C(=O)N(c4ccc(Oc5cc(F)cc(C(=O)O)c5)cn4)C[C@@H]3C2)NC(c2nccs2)=N[C@H]1c1ccc(F)cc1Cl` [Example 79, 3-((6-((S)-7-(((R)-6-(2-chloro-4-fluorophenyl)-5-(methoxycarbonyl)-2-(thiazol-2-yl)-3,6-dihydropyrimidin-4-yl)methyl)-3-oxohexahydroimidazo[1,5-a]pyrazin-2(3H)-yl)pyridin-3-yl)oxy)-5-fluorobenzoic acid]: the half-maximal cytotoxic concentration (CC50) at 4 days in data set [1] is more than 150000 nM. Besides, the EC50 in the data set with HBV amounted to 29 nM.

For the compound `COC(=O)C1=C(CN2CCN3C(=O)N(c4ccc(Oc5ccc(C(=O)O)cc5F)cn4)C[C@@H]3C2)NC(c2nccs2)=N[C@H]1c1ccc(F)cc1Cl` [Example 22, 4-((6-((S)-7-(((R)-6-(2-chloro-4-fluorophenyl)-5-(methoxycarbonyl)-2-(thiazol-2-yl)-3,6-dihydropyrimidin-4-yl)methyl)-3-oxohexahydroimidazo[1,5-a]pyrazin-2(3H)-yl)pyridin-3-yl)oxy)-3-fluorobenzoic acid], the CC50 at 4 days in data set [1] was more than 150000 nM. For the same compound, the EC50 in the data set on HBV came out at 18 nM.

As for `COC(=O)C1=C(CN2CCN3C(=O)N(c4ccnc(-c5ccc(C(=O)O)cc5)c4)C[C@@H]3C2)NC(c2nccs2)=N[C@H]1c1ccc(F)cc1Cl` [Example 123, 4-(4-((S)-7-(((R)-6-(2-chloro-4-fluorophenyl)-5-(methoxycarbonyl)-2-(thiazol-2-yl)-3,6-dihydropyrimidin-4-yl)methyl)-3-oxohexahydroimidazo[1,5-a]pyrazin-2(3H)-yl)pyridin-2-yl)benzoic acid], the CC50 at 4 days in data set [1] was more than 150000 nM. Moreover, in the data set on HBV, the EC50 is 37.9 nM.

As to `COC(=O)C1=C(CN2CCN3C(=O)N(CC#Cc4c(C)cc(C#N)cc4C)C[C@@H]3C2)NC(c2nccs2)=N[C@H]1c1ccc(F)cc1Cl` [Example 48, (R)-methyl 4-(2-chloro-4-fluorophenyl)-6-(((S)-2-(3-(4-cyano-2,6-dimethylphenyl)-2-propynyl)-3-oxohexahydroimidazo[1,5-a]pyrazin-7(1H)-yl)methyl)-2-me (thiazol-2-yl)-1,4-dihydropyrimidine-5-carboxylate], the CC50 at 4 days in data set [1] is more than 150000 nM. In addition, the EC50 with HBV turned out to be 6.3 nM.

As to `COC(=O)C1=C(CN2CCN3C(=O)N(c4nc(-c5ccc(C(=O)O)cc5F)cs4)C[C@@H]3C2)NC(c2nccs2)=N[C@H]1c1ccc(F)cc1Cl` [Example 136, 4-(2-((S)-7-(((R)-6-(2-chloro-4-fluorophenyl)-5-(methoxycarbonyl)-2-(thiazol-2-yl)-3,6-dihydropyrimidin-4-yl)methyl)-3-oxohexahydroimidazo[1,5-a]pyrazin-2(3H)-yl)thiazol-4-yl)-3-fluorobenzoic acid], the CC50 at 4 days in data set [1] was more than 150000 nM. The EC50 with HBV was found to be 20.1 nM.

Turning to `COC(=O)C1=C(CN2CCN3C(=O)N(c4ccc(Sc5ccc(OC(C)C)cc5)cc4)C[C@@H]3C2)NC(c2nccs2)=N[C@H]1c1ccc(F)cc1Cl` [Example 105, (R)-methyl 4-(2-chloro-4-fluorophenyl)-6-(((S)-2-(4-((4-isopropoxyphenyl)thio)phenyl)-3-oxohexahydroimidazo[1,5-a]pyrazin-7(1H)-yl)methyl)-2-(thiazol-2-yl)-1,4-dihydropyrimidine-5-carboxylate], the cytotoxic concentration (CC50) at 4 days in data set [1] is more than 150000 nM. Besides, the EC50 with HBV was determined as 29 nM.

In the case of `COC(=O)C1=C(CN2CCN3C(=O)N(c4nc(-c5cc(F)cc(C(=O)O)c5)cs4)C[C@@H]3C2)NC(c2nccs2)=N[C@H]1c1ccc(F)cc1Cl` [Example 138, 3-(2-((S)-7-(((R)-6-(2-chloro-4-fluorophenyl)-5-(methoxycarbonyl)-2-(thiazol-2-yl)-3,6-dihydropyrimidin-4-yl)methyl)-3-oxohexahydroimidazo[1,5-a]pyrazin-2(3H)-yl)thiazol-4-yl)-5-fluorobenzoic acid], the CC50 at 4 days in data set [1] was more than 150000 nM. The concentration for a half-maximal effect (EC50) in the data set on HBV is 34 nM.

On to `COC(=O)C1=C(CN2CCN3C(=O)N(CC#Cc4ccc(CO)cc4)C[C@@H]3C2)NC(c2nccs2)=N[C@H]1c1ccc(F)cc1Cl` [Example 37, (R)-methyl 4-(2-chloro-4-fluorophenyl)-6-(((S)-2-(3-(4-(hydroxymethyl)phenyl)prop-2-yn-1-yl)-3-oxohexahydroimidazo[1,5-a]pyrazin-7(1H)-yl)methyl)-2-(thiazol-2-yl)-1,4-dihydropyrimidine-5-carboxylate], for which the CC50 at 4 days in data set [1] is more than 150000 nM. Also, the concentration for a half-maximal effect (EC50) in the data set on HBV was 12.1 nM.

For the compound `COC(=O)C1=C(CN2CCN3C(=O)N(CC#Cc4ccc(S(C)(=O)=O)cc4)C[C@@H]3C2)NC(c2nccs2)=N[C@H]1c1ccc(F)cc1Cl` [Example 41, (R)-methyl 4-(2-chloro-4-fluorophenyl)-6-(((S)-2-(3-(4-(methylsulfonyl)phenyl)-2-propyn-1-yl)-3-oxohexahydroimidazo[1,5-a]pyrazin-7(1H)-yl)methyl)-2-(thiazol-2-yl)-1,4-dihydropyrimidine-5-carboxylate], in data set [1], the CC50 at 4 days is more than 150000 nM. The EC50 in the data set with HBV stood at 5.1 nM.

For `COC(=O)C1=C(CN2CCN3C(=O)N(c4ccc(Oc5ccc(S(C)(=O)=O)cc5)cc4)C[C@@H]3C2)NC(c2nccs2)=N[C@H]1c1ccc(F)cc1Cl` [Example 106, (R)-methyl 4-(2-chloro-4-fluorophenyl)-6-(((S)-2-(4-(4-(methylsulfonyl)phenoxy)phenyl)-3-oxohexahydroimidazo[1,5-a]pyrazin-7(1H)-yl)methyl)-2-(thiazol-2-yl)-1,4-dihydropyrimidine-5-carboxylate], the CC50 at 4 days in data set [1] was more than 150000 nM. The EC50 in the data set on HBV amounted to 6.2 nM.

As to `COC(=O)C1=C(CN2CCN3C(=O)N(c4ccc(C5(C#N)CC5)cc4)C[C@@H]3C2)NC(c2nccs2)=N[C@H]1c1ccc(F)cc1Cl` [Example 26], the CC50 at 4 days in data set [1] is more than 150000 nM. In addition, the EC50 with HBV was 1 nM.

`COC(=O)C1=C(CN2CCN3C(=O)N(c4ccc(-c5ccc(C(=O)O)c(F)c5)c(F)c4)C[C@@H]3C2)NC(c2nccs2)=N[C@H]1c1ccc(F)cc1Cl` [Example 34, 4′-((S)-7-(((R)-6-(2-chloro-4-fluorophenyl)-5-(methoxycarbonyl)-2-(thiazol-2-yl)-3,6-dihydropyrimidin-4-yl)methyl)-3-oxohexahydroimidazo[1,5-a]pyrazin-2(3H)-yl)-2′,3-difluoro-[1,1′-diphenyl]-4-carboxylic acid]: the CC50 at 4 days in data set [1] is more than 150000 nM. The concentration giving a half-maximal response (EC50) with HBV came out at 7 nM.

`COC(=O)C1=C(CN2CCN3C(=O)N(c4nc(-c5ccc(CC(C)(C)C(=O)O)cc5)cs4)C[C@@H]3C2)NC(c2nccs2)=N[C@H]1c1ccc(F)cc1Cl` [Example 36, 3-(4-(2-((S)-7-(((R)-6-(2-chloro-4-fluorophenyl)-5-(methoxycarbonyl)-2-(thiazol-2-yl)-3,6-dihydropyrimidin-4-yl)methyl)-3-oxohexahydroimidazo[1,5-a]pyrazin-2(3H)-yl)thiazol-4-yl)phenyl)-2,2-dimethylprop ionic acid]: the 50% cytotoxic concentration (CC50) at 4 days in data set [1] is more than 150000 nM. In addition, the EC50 in the data set on HBV was determined as 22 nM.

With `COC(=O)C1=C(CN2CCN3C(=O)N(c4ccc(Oc5ccc(C(=O)N(CCO)CCO)cc5)cc4)C[C@@H]3C2)NC(c2nccs2)=N[C@H]1c1ccc(F)cc1Cl` [Example 64, (R)-methyl 6-(((S)-2-(4-(4-(bis(2-hydroxyethyl)carbamoyl)phenoxy)phenyl)-3-oxohexahydroimidazo[1,5-a]pyrazin-7(1H)-yl)methyl)-4-(2-chloro-4-fluorophenyl)-2-(thiazol-2-yl)-1,4-dihydropyrimidine-5-carboxylate], the CC50 at 4 days in data set [1] is more than 150000 nM. Also, the EC50 with HBV stood at 24.9 nM.
